Values joined by “and” are separate entries in the source; they are usually repeats but may differ in a detail not shown here. Equal values may be shown once. Where a name gives a salt, the structure may show the parent alone. Read-outs that look alike come from different tables or passages of the source.
Experiments:
C57 male mice [1] = assay type: in vivo; conditions: for Survival number/Test number: no irradiation, 30-day
Procedure: Administration and grouping: Each group was intraperitoneally injected with one corresponding dose of amifostine. • Each group was intraperitoneally injected with one corresponding dose of Example 17 (IP).
The 30-day survival rate of mice in each group was recorded.

C57 male mice [2] = test system: C57 male mice;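 on survival rate compared with amifostine: mice aged 8-10 weeks, weighing 20-22 g, with deaths logged and survival rate computed on day 30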;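 on survival rates compared with amifostine: mice aged 8-10 weeks, weighing 20-22 g, with deaths logged and survival rate computed on day 30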
Procedure: Laboratory animals: C57 male mice, 8-10 weeks old, 20-22 g, were divided into 4 groups, 5 or 10 or 15 or 20 or 25 mice in each group.
Observation index: The death and weight of the mice were recorded, and the survival rate was calculated on the 30th day.

C57 male mice [3] = assay: Example F: radiation pneumonia, HE staining of right lung on the 60th day after 17Gy X rays; assay type: in vivo
Procedure: Administration and grouping: Mice were intraperitoneally injected with normal saline, Example 4 (400 mpk), and amifostine (200 mpk) respectively 30 min before irradiation, and the right lungs were irradiated at 17Gy by X rays. The right lungs were taken on the 60th day for HE staining (n=3):
Two months after irradiation of the unilateral lung, the most important lung manifestation was radiation pneumonia. […] The alveolar structure of mice in the 17Gy group was changed, which was manifested as a large area of inflammatory infiltration of the lung (the blue dots were inflammatory cells), and the alveoli were filled with inflammatory cells.

[4] = cited from earlier work
C57 male mice [5] = assay: Example E2: HE staining of small intestine on the 5th day after local abdominal irradiation; assay type: in vivo
Procedure: In amifostine group, intraperitoneal injection was performed 30 min before the local abdominal irradiation at 16Gy, wherein amifostine was dissolved in normal saline, 365 mpk.
In Example 4 group, intraperitoneal injection was performed 30 min before the local abdominal irradiation at 16Gy, wherein Example 4 was dissolved in normal saline, 517 mpk.
The mice were sacrificed on the 5th day after the irradiation, and the small intestine was taken and sectioned for HE staining.

C57 male mice [6] = assay: Example G: effect of stereoisomerism on survival rate of mice under 7.5Gy irradiation; assay type: in vivo; conditions: 200 mg/kg IP 30 min before irradiation
Text: Laboratory animals: C57 male mice, 19-21 g, purchased from Beijing HFK Bioscience Co. Ltd., license number SCXK (Beijing), 9 mice in each group.

C57 male mice [7] = assay: Example D: protective effect on the hematopoietic system after 4Gy irradiation; assay type: in vivo; conditions: 800 mpk IP 30 min before 4Gy
Text: The mice were sacrificed on the 15th day after the irradiation, followed by blood collection. Femoral bone marrow cells, spleen and thymus were weighed, and cells were extracted for detecting the peripheral white blood cell (WBC) count, peripheral red blood cell (RBC) count, peripheral hemoglobin (HGB) concentration, peripheral platelet (PLT) count, peripheral blood lymphocyte ratio (LY %), and peripheral blood neutrophil ratio (NE %).
In addition, the number of leukocytes in bone marrow, ratio of hematopoietic stem cell (LSK) in bone marrow cells, ratio of hematopoietic progenitor cells (HPC) in bone marrow cells, ratio of CD34−LSK in bone marrow cells, and ratio of CD34+LSK in bone marrow cells were detected.
The effects of irradiation on LSK intracellular reactive oxygen species (ROS) level and HPC intracellular ROS level were also detected.

[8] = 6.8Gy, 200 mpk IP 30 min before irradiation, day 30
[9] = 15th day, vs irradiation control

SMILES: NCCCNCCSP(=O)(O)O [Amifostine, amifostine, reference compound]
- Survival number/Test number (C57 male mice [1]; 400 mpk IP): 5/5
- Survival number/Test number (C57 male mice [1]; 600 mpk IP): 5/5
- Survival number/Test number (C57 male mice [1]; 800 mpk IP): 3/5
- Survival number/Test number (C57 male mice [1]; 1600 mpk IP): 0/5
- Survival number/Test number (C57 male mice [2]; [8]): 5/5
- Survival rate (C57 male mice [2]; [8]): 100%
- Survival number/Test number (C57 male mice [2]; 7.2Gy, 200 mpk IP, day 30): 9/10 and 12/15 and 4/5 and 7/10 and 20/25
- Survival rate (C57 male mice [2]; 7.2Gy, 200 mpk IP, day 30): 90% and 80% and 70%
- Survival number/Test number (C57 male mice [2]; 7.5Gy, 200 mpk IP, day 30): 5/5 and 4/5 and 1/10
- Survival number/Test number (C57 male mice [2]; 7.5Gy, 365 mpk IP): 10/10
- Survival rate (C57 male mice [2]; 7.5Gy, 365 mpk IP): 100%
- Survival number/Test number (C57 male mice [2]; 10Gy, 517 mpk IP): 15/20
- Survival rate (C57 male mice [2]; 10Gy, 517 mpk IP): 75%
- Survival number/Test number (C57 male mice [2]; 12.5Gy, 517 mpk IP): 5/10
- Survival rate (C57 male mice [2]; 12.5Gy, 517 mpk IP): 50%
- inflammatory cell infiltration of lung / incidence of radiation pneumonia (C57 male mice [3]; 200 mpk IP 30 min before 17Gy X rays to right lung): partially relieve inflammatory cell infiltration and reduce the incidence of radiation pneumonia
- half-life [4]: 7 min
- intestinal villi structure (HE staining) (C57 male mice [5]; 365 mpk IP 30 min before local abdominal irradiation at 16Gy): slight changes compared with the irradiation group

SMILES: CNC(=O)[C@H](CS)NC(=O)[C@H](CS)NC(=O)[C@H](CS)NC [Example 4, (R)-3-mercapto-N—((R)-3-mercapto-1-(((R)-3-mercapto-1-(methylamino)-1-oxopropan-2-yl)amino)-1-oxopropan-2-yl)-2-(methylamino) propanamide trifluoroacetate]
- Survival number/Test number (C57 male mice [1]; 400 mpk IP): 10/10
- Survival number/Test number (C57 male mice [1]; 600 mpk IP): 5/5
- Survival number/Test number (C57 male mice [1]; 800 mpk IP): 10/10
- Survival number/Test number (C57 male mice [1]; 900 mpk IP): 10/10
- Survival number/Test number (C57 male mice [1]; 1000 mpk IP): 6/6 and 10/10
- Survival number/Test number (C57 male mice [1]; 1100 mpk IP): 8/10
- Survival number/Test number (C57 male mice [1]; 1200 mpk IP): 6/10
- Survival number/Test number (C57 male mice [1]; 1600 mpk IP): 3/10
- Survival rate (C57 male mice [1]; male, C57, mouse, in vivo, 1000 mg/kg, 30 day): 100%
- safety compared with amifostine (C57 male mice [1]; mouse, in vivo): as safe as or even better than amifostine
- Survival number/Test number (C57 male mice [2]; 7.2Gy, 200 mpk IP, day 30): 20/25
- Survival rate (C57 male mice [2]; 7.2Gy, 200 mpk IP, day 30): 80%
- Survival number/Test number (C57 male mice [2]; 7.5Gy, 517 mpk IP): 9/10
- Survival rate (C57 male mice [2]; 7.5Gy, 517 mpk IP): 90%
- Survival number/Test number (C57 male mice [2]; 7.5Gy, 800 mpk IP): 7/10
- Survival rate (C57 male mice [2]; 7.5Gy, 800 mpk IP): 70%
- Survival number/Test number (C57 male mice [2]; 10Gy, 365 mpk IP): 15/20
- Survival rate (C57 male mice [2]; 10Gy, 365 mpk IP): 75%
- Survival number/Test number (C57 male mice [2]; 12.5Gy, 365 mpk IP): 4/10
- Survival rate (C57 male mice [2]; 12.5Gy, 365 mpk IP): 40%
- survival rates compared with amifostine (C57 male mice [2]; absorbed dose 6.8Gy and 7.2Gy): survival rates comparable to those using amifostine
- survival rate compared with amifostine (C57 male mice [2]; higher absorbed dose, as high as 12.5Gy): a survival rate equivalent to those using amifostine
- inflammatory cell infiltration of lung / incidence of radiation pneumonia (C57 male mice [3]; 400 mpk IP 30 min before 17Gy X rays to right lung): partially relieve inflammatory cell infiltration and reduce the incidence of radiation pneumonia
- Survival number/Test number (C57 male mice [6]): 5/9
- Survival rate (C57 male mice [6]): approximately 56%
- deaths (C57 male mice [6]; 9 mice per group): (4 deaths)
- intestinal villi structure (HE staining) (C57 male mice [5]; 517 mpk IP 30 min before local abdominal irradiation at 16Gy): slight changes compared with the irradiation group
- number of leukocytes (WBC) in bone marrow (C57 male mice [7]; 15th day): increased by administration of Example 4 with significant difference
- ratio of hematopoietic progenitor cells (HPC) in bone marrow cells (HPC %) (C57 male mice [7]; 15th day): increased by administration of Example 4 with significant difference
- ratio of hematopoietic stem cell (LSK) in bone marrow cells (LSK %) (C57 male mice [7]; 15th day): increased by administration of Example 4 with significant difference
- ratio of CD34+LSK in bone marrow cells (C57 male mice [7]; 15th day, irradiation decreased CD34+LSK %): alleviated this abnormal differentiation with significant difference
- ratio of CD34−LSK in bone marrow cells (C57 male mice [7]; 15th day, irradiation increased CD34−LSK %): alleviated this abnormal differentiation with significant difference
- peripheral blood neutrophil ratio (NE %) (C57 male mice [7]; 15th day, irradiation increased NE %): alleviated this abnormal differentiation with significant difference
- peripheral blood lymphocyte ratio (LY %) (C57 male mice [7]; 15th day, irradiation reduced LY %): alleviated this abnormal differentiation with significant difference
- peripheral red blood cell (RBC) count (C57 male mice [7]; [9]): increased by administration of Example 4 with significant difference
- peripheral white blood cell (WBC) count (C57 male mice [7]; [9]): increased by administration of Example 4 with significant difference
- HPC intracellular ROS level (C57 male mice [7]; bone marrow): reduced the ROS levels with significant difference
- LSK intracellular reactive oxygen species (ROS) level (C57 male mice [7]; bone marrow): reduced the ROS levels with significant difference
